This note sets out measurements from US20240041827A1, “COMPOSITIONS FOR THE TREATMENT OF FAT RELATED CONDITIONS AND DISORDERS” (priority 2020, published 2024).

The series can be described thus: in vitro. On the procedure: Human visceral preadipocytes were seeded in 96-well white clear bottom plates at 10,000 cells per well in 100 μl pre-adipocyte medium and incubated overnight at 37° C. 5% CO2. On the following day, adipogenic differentiation was induced by addition of 100 μl/well differentiation medium and incubation continued for 5 days. Adipogenic differentiation was verified by microscopic evaluation, addition of adipored reagents and fluorescent measurement at Ex485 nm/Em572 nm. […] Staurosporine (1 μM) and 0.2% DMSO were used as controls. Plates were incubated at 37° C. 5% CO2 for 2, 6 and 24 hours. Following incubation, cytotoxicity was measured using Cell Titer Glo 2.0 (Promega).
Test Item RZL-12 (1-300 μM) was prepared on the day of the testing as 150 mM stock solutions in DMSO. The 150 mM represents a 500×stock of the highest desired tested concentration. The 150 mM stock solution was first serially diluted in DMSO to acquire 500×stock solutions for each of the RZL-012 concentrations. The 500×stock solutions were then diluted 1:25 in medium to acquire 20×intermediate stock solutions. Finally, the 20×intermediate stock solutions were further diluted 1:20 in the assay (on the plate) that included seeded cells.
The 600 μM represents a 20× stock of the highest desired tested concentration. […] Finally, the 20×intermediate stock solutions were further diluted 1:20 in the assay plate that included seeded cells.
Human visceral pre-adipocytes (HPrAD-vis): HPrAD-vis cells (Lonza cat #PT-5005) were thawed at 37° C. and transferred into 50 ml tubes containing pre-adipocytes PGM-2 growth medium (PBM-2, 10% FBS, 1-glutamine, GA-1000). Cells were centrifuged at 300 g for 10 minutes, the supernatant was removed (Leaving about 1 ml of wash medium for not disrupting the cells) and 2 ml fresh PGM-2 medium was added. After resuspension, cells were counted and seeded in T-75 and T25 flasks at a density of 9,000 cells/cm^2 ([…], 225,000 cells/T25 flask). Medium was changed every 2-3 days until reached confluence of 70%.
Cells were sub-cultured only once, as soon as they reached 70% confluence. For this purpose, the culture medium of each flask was removed and cells were washed once with 5 ml PBS. The flask was shaken to ensure that the entire surface was covered and the PBS was removed. Then, 3 ml/T75 flask or 1 ml/T25 flask of fresh dedicated Trypsin/EDTA solution (from Lonza) was added and the flasks were incubated for 3-4 minutes at RT until ˜90% cells were detached. The Trypsin/EDTA solution was then neutralized by addition of 6 ml/T75 flask or 3 ml/T25 flask of full PGM-2 growth medium. Cells were collected in 50 ml tubes and centrifuged 10 minutes at 300 g. The supernatant was removed and the cells were resuspended in 3 ml fresh medium. Cells were then counted using a haemacytometer slide after being diluted 1:2 in trypan blue (SIGMA). For sub-culturing, cells were seeded in new T75 flasks at a density of 9,000 cells/cm^2 containing 15 ml fresh growth medium. Alternatively, the cells were seeded in 96-well culture plates at a density of 10,000 cells/well for the cell treatments.
HPrAD-vis cells: HPrAD-vis passaged once were seeded in 96-well plates as described above (10000cells/well in 100 μl medium) and allowed to settle overnight at 37° C., 5% CO2. Following day, adipogenic differentiation was induced by addition of 100 μl/well differentiation medium and incubated for 5 days. Adipogenic differentiation was verified by microscopic evaluation, addition of adipored reagents and fluorescent measurement at Ex485 nm/Em572 nm. In the morning of day 6, test and reference items were prepared as described above. Cells' medium was replaced with 90 μl fresh differentiation medium. […] Staurosporine (1 μM) and 0.2% DMSO were used as controls. Plates were incubated at 37° C. 5% CO2 for 2, 6 and 24 hours. Following incubation, cell viability was determined using the CellTiter-Gg® viability reagent (Promega) with reading of plates for luminescence. […]

What is called IC50 is the concentration that gives 50% inhibition. A low value points to greater potency in that assay.

`C[N+](C)(C)CCCCCn1c2ccc(Br)cc2c2cc(Br)ccc21.[Cl-]` [RZL-012, 5-(3,6-dibromo-9H-carbazol-9-yl)-N,N,N-trimethylpentan-1-aminium chloride] gave an IC50 of about 30 µM.
